Each structure is given as a SMILES string.

What all share (assay type): cell-based, human
Test [1] has as its system HeLa cells. Nature of the test: Western blot of cleaved caspases 3, 8, 9 and cleaved PARP. Conditions: most notably 10 μM, 24 h. As for the experimental part: The cells were seeded on 6 cm^2 cell culture dishes, and treated with sulfonamide compounds, at doses of 10 and 25 μM, for 24 h. The cells were then washed with cold PBS, which was followed by lysis with RIPA lysis buffer (10 mM Tris-HC1 pH =8, 1 mM EDTA, 1 mM EGTA, 140 mM NaCl, 1% TritonX-100, 0.1 SDS, 0.1% Sodium deoxycholate), 1X phosphates and protease inhibitor (Santa Cruz Biotechnology, Dallas, USA). The acquired supernatants from the lysates which were centrifuged at 12000 g, +4 °C, for 10 min, were transferred to new tubes. Protein concentration was detected using the protein assay kit BCA (Thermo Fisher Scientific, Waltham, MA). After a 30-min period of protein (50 µg) standing in 10% SDS-PAGE gel at 50 V and at 80 V for 3 h, those were blotted to PVDF membrane at 70 V for 5 min (Bio-Rad Turbo Transfer System, Segrate (MI), Italy). After embedding in 1X TBST (12,1 gr Tris, pH 7.5, 70 gr NaCl, 0.1% Tween-20) containing 5% dry milk or 5% BSA, the primer monoclonal antibodies Cleaved Caspase 3,8,9, Cleaved PARP (Millipore) CA IX and Beta-actin, were applied to the membrane and left overnight, which was followed by washing with 1X TBS-T and an incubation period with secondary antibodies of HRP rabbit (Cell signaling, Danvers, MA, USA) or mouse (1/10.000) for 60 min. […]
(In general: A western blot detects proteins with antibodies after separation by electrophoresis.)

In test [2] the test system is HeLa cells. Nature of the test: Cell cycle assay by flow cytometry. Conditions: 50 μM, 24 h. As to the method: Cell cycle analysis was performed using BD Cycletest™ Plus DNA Reagent kit (BD Biosciences, New Jersey, USA). According to the kit protocol, 1 × 10^6 cells were plated on 6-well plates, and following 24 h, the cells were incubated for 24 h, with sulfonamide derivative compounds at concentrations of 10–25–50 μM. The cells were raised with trypsin handling and centrifuged at 1500 rpm for 5 min. A suspension was formed with 1X binding buffer, and respectively, 250 µl solution A was added and incubated in a light-free environment for 10 min; 200 µl solution B was added and incubated in a light-free environment for 10 min; and 200 µl solution C was added and incubated in at +4 °C in a protected-light environment for 10 min. All analyses were performed by flow cytometry (BD Via, New Jersey, USA).

For test [3], the system named is HeLa cells. In words: Intracellular ROS detection. As to conditions: 0–25 μM. As for the experimental part: Intracellular free radicals were measured using the Cellular Reactive Oxygen Species Detection Assay commercial kit (Red Fluorescence, Abcam, Cambridge-UK, 186027). In this kit, a fluorescence probe that is permeable to the cell is used. When the probe reacts with ROS, it produces red fluorescence. The process was applied following kit protocol. The cells were plated on black plates, as 3 × 10^4 in 100 µl, and incubated for 24 h. Sulfonamide compounds in PBS were administered at doses of 0–25 μM and incubated at 37 °C in an atmosphere of 5% CO2 for 1 h (protected from light). After the compounds were poured out, the wells were filled with 100 µl of ROS Deep Red Working Solution and incubated at 37 °C in an atmosphere of 5% CO2 for 1 h. A fluorometry device (Spectramax, M5) Ex/Em = 650/675 nm (cut off = 665 nm) was used to take the measurements.

Test [4] relates to HeLa cells. In words: Annexin V-FITC/PI flow cytometry apoptosis. Conditions: from 10 μM, 24 h. As for the experimental part: The apoptotic effect of the substances was explored with the commercial FITC Annexin V Apoptosis Detection Kit I (BD Biosciences, New Jersey, USA) according to the manufacturer’s protocol. The cells were plated on 6-well plates (5 × 10^5 cells/well), and following 24 h incubation, sulfonamide compounds at concentrations of 10 and 25 μM were administered, followed by incubation for 24 h. The cells were raised by trypsin handling, and transferred into new tubes within 1X binding buffer, as 1 × 10^6 in each tube, which was incubated for 15 min at room temperature. 5 μL of fluorochrome-conjugated Annexin V and 5 μL of Propidium Iodide dyes were then added. 100 μl 1X binding buffer was added to the cells, and they were then centrifuged at 1200 rpm, for 5 min. Finally, the cells were analysed in flow cytometry (BD Via, New Jersey, USA).

Test [5] relates to HeLa cells. In words: AO/EB double staining. As to conditions: 10 and 25 μM, 24 h. As to the method:
At 24 h after the plating of HeLa cells in 12-well plates at 5 × 10^4 cell/ml, sulfonamide derivative compounds at concentrations of 10 and 25 μM were added to the plates, and the cells were incubated at 37 °C for 24 h. The cells were then washed with PBS, and released for incubation in a solution including 100 μl (acridine orange (100 µg/ml) and ethidium bromide (100 µg/ml) at room temperature for 5 min. The morphological fluctuations indicating apoptosis were investigated under fluorescent microscopy (Olympus CKX 53, DP73, Tokyo, Japan).

The subject of test [6] is HeLa cells. Nature of the test: Intracellular pH (BCFL-AM fluorometric kit). Conditions: 0–25 μM. As to the method:
Intracellular pH was measured according to the protocol of the fluorometric Intracellular pH Assay Kit (Sigma, Schnelldorf, Germany, MAK-150). Fluorescent BCFL-AM indicator that was able to pass through the cell membrane was used to measure intracellular pH fluctuations in the fluorometric intracellular pH kit. BCFL-AM was utilised to measure the reductions in intracellular pH of the cells that had been treated by various conditions. The cells were plated on black plates, as 6 × 10^4 in each well of the plate, and incubated for 24 h. The medium was replaced with BCFL-AM Reagent which had been prepared in 100 µl of HBS solution (Hank’s buffer with 20 mM HEPES, 5 mM Probenecid), then the cells were incubated at 37 °C in an atmosphere of 5% CO2 for 30 min (protected from light). Sulfonamide compound at doses of 0–25 μM was added to the HBS solution. In the next 5 min, the measurement was performed at wavelengths of 490 nm (excitation) 535 nm (emission) in spectrofluorimetry (Spectramax, M5). Extracellular pHe and lactate levels were measured with commercial kit by the blood gas device (ABL90 FLEX PLUS, Radiometer, Copenhagen, Denmark) which is routinely used in the clinical biochemistry laboratory of hospital. After the application of the substance in this method, the media were analysed directly by the device.

For `NS(=O)(=O)c1ccc(CCN=Cc2cc(Cl)ccc2O)cc1` [Compound A-1], in test [1], the “cleaved caspase 3, 8, 9 and c-PARP protein levels” value is recorded as “significant increase”. In test [2], the “cells in G0/G1” value stood at 65.7%, the “cells in G2/M” value is listed as 13.8% and the “cells in S” value came to 19.4%. Moreover, in test [3], the “intracellular ROS” value was “increase the intracellular ROS in HeLa cells in a dose-dependent manner”. The early apoptosis in test [4] is on record as 48.7%. For the same molecule, the “apoptosis by morphology (AO/EB)” value in test [5] was “presence of apoptosis in HELA cells treated with A1 has been confirmed morphologically”. Moreover, the “intracellular pH (pHi) change” value in test [6] is “reduction of pHi”.

Values taken from paper PMC6211230, “Assessment of the antiproliferative and apoptotic roles of sulfonamide carbonic anhydrase IX inhibitors in HeLa cancer cell line” (Journal of Enzyme Inhibition and Medicinal Chemistry, 2018).
